These results are taken from article PMC4279228 (Molecular Biology of the Cell, 2015).

This assay has as its target LFA-1 (CD11a/CD18, αLβ2 integrin) (Homo sapiens, UniProt P05107+P20701). Put plainly: Kd of unlabelled compound with XVA-FITC probe, flow cytometry on cells. The format is cell-based. Background: A flow cytometer gives signals particle by particle.

LFA-1 (CD11a/CD18, αLβ2 integrin), sequence (P20701 26-1170): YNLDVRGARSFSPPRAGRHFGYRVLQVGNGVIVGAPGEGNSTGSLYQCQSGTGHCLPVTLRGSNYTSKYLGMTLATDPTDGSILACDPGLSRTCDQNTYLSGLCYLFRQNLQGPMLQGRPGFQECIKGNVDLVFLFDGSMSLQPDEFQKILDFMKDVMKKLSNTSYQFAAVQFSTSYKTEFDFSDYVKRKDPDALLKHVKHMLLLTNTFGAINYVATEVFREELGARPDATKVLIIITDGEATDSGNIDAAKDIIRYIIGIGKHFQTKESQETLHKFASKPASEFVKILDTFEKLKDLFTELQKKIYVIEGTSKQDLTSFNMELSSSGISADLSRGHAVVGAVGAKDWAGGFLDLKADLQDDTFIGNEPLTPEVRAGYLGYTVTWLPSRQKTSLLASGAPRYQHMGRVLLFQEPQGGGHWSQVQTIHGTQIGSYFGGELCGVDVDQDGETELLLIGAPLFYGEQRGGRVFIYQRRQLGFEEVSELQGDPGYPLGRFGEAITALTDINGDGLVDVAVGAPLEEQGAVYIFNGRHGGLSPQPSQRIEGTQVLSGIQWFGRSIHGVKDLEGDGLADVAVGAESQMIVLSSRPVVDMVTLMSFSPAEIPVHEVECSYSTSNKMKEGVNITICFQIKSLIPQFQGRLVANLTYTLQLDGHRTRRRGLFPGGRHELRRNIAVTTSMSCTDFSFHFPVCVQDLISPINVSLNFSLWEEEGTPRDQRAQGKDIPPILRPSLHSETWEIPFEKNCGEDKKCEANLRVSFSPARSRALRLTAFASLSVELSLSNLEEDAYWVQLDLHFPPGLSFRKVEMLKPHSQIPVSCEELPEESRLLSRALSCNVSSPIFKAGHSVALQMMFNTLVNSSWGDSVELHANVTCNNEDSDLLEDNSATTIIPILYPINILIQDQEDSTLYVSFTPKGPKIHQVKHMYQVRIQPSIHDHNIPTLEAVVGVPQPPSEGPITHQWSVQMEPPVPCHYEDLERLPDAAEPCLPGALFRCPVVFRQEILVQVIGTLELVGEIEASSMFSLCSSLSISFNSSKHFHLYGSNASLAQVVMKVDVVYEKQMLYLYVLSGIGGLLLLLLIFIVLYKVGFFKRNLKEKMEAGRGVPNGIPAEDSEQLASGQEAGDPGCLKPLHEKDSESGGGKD
LFA-1 (CD11a/CD18, αLβ2 integrin), sequence (P05107 23-769): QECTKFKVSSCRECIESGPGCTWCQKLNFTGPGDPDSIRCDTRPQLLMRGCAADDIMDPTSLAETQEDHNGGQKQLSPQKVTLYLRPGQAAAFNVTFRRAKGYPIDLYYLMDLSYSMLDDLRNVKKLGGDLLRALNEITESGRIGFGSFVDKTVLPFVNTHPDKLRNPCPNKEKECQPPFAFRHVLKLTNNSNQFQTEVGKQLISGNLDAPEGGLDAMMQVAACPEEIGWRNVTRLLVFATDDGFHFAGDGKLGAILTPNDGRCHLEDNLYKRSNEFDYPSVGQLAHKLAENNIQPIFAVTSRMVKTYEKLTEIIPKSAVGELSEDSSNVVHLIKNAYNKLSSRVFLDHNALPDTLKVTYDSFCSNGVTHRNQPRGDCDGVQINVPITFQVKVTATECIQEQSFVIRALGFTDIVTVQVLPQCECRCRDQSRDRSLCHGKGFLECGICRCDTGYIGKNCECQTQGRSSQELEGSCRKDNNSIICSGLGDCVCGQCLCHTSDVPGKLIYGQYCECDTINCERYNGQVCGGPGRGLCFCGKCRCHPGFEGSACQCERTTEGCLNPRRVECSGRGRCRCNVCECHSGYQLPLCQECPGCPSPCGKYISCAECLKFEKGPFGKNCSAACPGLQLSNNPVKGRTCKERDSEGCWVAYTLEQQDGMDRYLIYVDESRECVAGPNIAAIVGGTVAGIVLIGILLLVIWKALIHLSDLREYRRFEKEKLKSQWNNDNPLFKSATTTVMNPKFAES

One may read the Kd as the constant that tells how readily two partners part at equilibrium. Low values mean a tighter complex, high ones a looser complex. For `O=C(NCc1cccc(O)c1)c1cc(Cl)c(C(=O)N[C@@H](CNC(=O)c2cc(O)cc(O)c2)C(=O)O)c(Cl)c1` [XVA-143, (S)-2-[4-(3-hydroxybenzylcarbamoyl)-2,6-dichlorobenzoylamino]-3-(3,5-dihydroxybenzoylamino) propionic acid], the equilibrium dissociation constant (Kd) lay within 80 to 90 nM.
